Assay results: ChEMBL document CHEMBL3991601, “The target landscape of clinical kinase drugs” (Science, 2017)
Active and inactive are the calls of the source. For most assays here, no stated cut-off is given here; in the data, actives have a measured Kd and inactives only a lower limit.

How the values were obtained:
[1] = target: T1, Peroxisomal acyl-coenzyme A oxidase 3 (Homo sapiens, UniProt O15254)
T1 sequence (O15254 whole entry): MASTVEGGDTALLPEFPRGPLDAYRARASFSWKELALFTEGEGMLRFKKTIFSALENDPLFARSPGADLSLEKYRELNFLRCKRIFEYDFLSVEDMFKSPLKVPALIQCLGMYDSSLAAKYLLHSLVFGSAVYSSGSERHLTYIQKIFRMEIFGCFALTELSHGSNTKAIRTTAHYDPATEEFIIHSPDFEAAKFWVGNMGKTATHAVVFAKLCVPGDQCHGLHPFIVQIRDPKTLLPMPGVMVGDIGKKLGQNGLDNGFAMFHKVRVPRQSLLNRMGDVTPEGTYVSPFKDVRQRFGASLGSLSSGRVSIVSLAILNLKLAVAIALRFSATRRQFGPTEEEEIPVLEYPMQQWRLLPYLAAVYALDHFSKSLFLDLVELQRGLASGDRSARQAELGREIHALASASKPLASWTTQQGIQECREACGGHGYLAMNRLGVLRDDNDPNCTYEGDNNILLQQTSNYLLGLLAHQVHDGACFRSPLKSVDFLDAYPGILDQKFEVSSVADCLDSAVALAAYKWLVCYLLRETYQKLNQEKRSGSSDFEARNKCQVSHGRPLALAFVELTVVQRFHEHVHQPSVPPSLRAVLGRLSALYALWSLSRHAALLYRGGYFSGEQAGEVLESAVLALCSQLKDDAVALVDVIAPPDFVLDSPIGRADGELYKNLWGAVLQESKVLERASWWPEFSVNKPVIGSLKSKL

[2] = target: T2, Activin receptor type-1 (Homo sapiens, UniProt Q04771)
T2 sequence (Q04771 whole entry): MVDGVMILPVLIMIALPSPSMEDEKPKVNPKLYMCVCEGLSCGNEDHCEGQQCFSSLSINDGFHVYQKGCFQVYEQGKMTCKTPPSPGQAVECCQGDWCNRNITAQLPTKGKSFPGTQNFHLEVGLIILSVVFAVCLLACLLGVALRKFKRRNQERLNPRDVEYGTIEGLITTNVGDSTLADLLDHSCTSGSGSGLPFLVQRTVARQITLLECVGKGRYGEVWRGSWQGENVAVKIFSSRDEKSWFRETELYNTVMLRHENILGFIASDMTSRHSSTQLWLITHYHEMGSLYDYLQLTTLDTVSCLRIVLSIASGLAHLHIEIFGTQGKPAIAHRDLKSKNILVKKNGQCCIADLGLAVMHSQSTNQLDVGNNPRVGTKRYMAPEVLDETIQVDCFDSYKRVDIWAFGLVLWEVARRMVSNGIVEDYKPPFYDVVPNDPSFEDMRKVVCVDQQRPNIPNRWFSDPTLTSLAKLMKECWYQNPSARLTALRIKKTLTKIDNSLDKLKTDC

[3] = target: Cyclin-dependent kinase 1 (Homo sapiens, UniProt P06493)
Chain of Cyclin-dependent kinase 1 (P06493 whole entry): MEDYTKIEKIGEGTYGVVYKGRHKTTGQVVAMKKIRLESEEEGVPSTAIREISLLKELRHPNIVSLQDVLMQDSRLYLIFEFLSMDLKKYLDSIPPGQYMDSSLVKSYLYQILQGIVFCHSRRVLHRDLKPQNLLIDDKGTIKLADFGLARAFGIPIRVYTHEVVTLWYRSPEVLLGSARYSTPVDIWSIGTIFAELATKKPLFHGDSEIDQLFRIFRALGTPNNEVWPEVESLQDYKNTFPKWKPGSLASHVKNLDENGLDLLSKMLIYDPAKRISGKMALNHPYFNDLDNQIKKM

[4] = target: Tyrosine-protein kinase FRK (Homo sapiens, UniProt P42685)
Chain of Tyrosine-protein kinase FRK (P42685 whole entry): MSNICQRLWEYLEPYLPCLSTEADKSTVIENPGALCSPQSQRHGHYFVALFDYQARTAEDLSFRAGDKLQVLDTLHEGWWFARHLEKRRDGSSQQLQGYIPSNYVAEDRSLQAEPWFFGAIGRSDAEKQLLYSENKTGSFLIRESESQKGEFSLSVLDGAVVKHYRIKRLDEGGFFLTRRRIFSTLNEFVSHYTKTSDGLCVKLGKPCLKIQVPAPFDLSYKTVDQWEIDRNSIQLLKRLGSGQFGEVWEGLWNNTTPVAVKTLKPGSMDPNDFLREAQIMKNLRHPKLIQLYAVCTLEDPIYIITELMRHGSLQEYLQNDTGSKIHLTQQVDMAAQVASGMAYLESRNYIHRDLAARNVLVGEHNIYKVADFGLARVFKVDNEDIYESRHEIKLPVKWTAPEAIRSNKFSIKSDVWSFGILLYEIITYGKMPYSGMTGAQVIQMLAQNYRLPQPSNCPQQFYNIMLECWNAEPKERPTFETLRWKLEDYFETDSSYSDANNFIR

[5] = target: T3, Phosphatidylinositol 5-phosphate 4-kinase type-2 gamma (Homo sapiens, UniProt Q8TBX8)
T3 sequence (Q8TBX8 whole entry): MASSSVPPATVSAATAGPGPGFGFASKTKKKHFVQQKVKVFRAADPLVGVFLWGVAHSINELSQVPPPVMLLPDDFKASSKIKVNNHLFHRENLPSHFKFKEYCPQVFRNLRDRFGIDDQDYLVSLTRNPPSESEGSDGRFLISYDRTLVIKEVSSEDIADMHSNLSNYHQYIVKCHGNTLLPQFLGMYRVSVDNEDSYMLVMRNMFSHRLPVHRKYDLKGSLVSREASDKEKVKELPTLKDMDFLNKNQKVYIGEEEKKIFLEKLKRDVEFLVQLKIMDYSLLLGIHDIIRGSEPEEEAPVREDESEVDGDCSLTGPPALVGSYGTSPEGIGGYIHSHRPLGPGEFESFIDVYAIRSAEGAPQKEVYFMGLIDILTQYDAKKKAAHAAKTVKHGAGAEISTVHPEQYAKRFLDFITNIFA

[6] = target: T4, Serine/threonine-protein kinase D2 (Homo sapiens, UniProt Q9BZL6)
T4 sequence (Q9BZL6 whole entry): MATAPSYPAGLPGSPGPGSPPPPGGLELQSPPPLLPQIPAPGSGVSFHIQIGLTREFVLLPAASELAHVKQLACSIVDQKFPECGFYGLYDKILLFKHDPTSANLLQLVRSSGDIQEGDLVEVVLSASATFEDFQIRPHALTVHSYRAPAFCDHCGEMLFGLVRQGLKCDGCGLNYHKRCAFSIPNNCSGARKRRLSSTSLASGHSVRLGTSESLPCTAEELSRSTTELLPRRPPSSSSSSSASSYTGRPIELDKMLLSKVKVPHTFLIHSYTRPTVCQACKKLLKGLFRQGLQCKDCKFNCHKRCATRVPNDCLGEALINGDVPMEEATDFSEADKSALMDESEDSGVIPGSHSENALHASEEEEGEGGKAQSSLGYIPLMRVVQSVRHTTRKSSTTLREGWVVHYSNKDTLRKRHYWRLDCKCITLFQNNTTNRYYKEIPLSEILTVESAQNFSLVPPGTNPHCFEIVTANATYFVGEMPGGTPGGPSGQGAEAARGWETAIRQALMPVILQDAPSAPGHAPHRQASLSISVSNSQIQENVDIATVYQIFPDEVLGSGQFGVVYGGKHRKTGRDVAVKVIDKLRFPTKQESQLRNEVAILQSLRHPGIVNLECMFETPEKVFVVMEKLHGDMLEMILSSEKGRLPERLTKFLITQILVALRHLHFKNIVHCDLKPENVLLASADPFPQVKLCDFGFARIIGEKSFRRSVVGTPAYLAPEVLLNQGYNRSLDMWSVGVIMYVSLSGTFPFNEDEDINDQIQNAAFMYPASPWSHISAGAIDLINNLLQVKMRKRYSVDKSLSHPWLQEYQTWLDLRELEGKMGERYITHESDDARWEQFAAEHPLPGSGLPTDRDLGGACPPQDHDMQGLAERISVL

[7] = target: Serine/threonine-protein kinase 16 (Homo sapiens, UniProt O75716)
Chain of Serine/threonine-protein kinase 16 (O75716 whole entry): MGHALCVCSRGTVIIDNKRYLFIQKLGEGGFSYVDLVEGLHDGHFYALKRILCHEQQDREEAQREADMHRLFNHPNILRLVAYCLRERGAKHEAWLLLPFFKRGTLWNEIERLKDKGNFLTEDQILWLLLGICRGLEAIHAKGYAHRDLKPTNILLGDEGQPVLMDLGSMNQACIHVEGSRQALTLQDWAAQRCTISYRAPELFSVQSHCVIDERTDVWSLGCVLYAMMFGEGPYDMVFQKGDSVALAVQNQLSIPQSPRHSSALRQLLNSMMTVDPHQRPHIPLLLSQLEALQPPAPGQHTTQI

Kd [1]	Kd [2]	Kd [3]	Kd [4]	Kd [5]	Kd [6]	Kd [7]	Compound
> 30 µM (inactive)	> 30 µM (inactive)	> 30 µM (inactive)	> 30 µM (inactive)	> 30 µM (inactive)	> 30 µM (inactive)	> 30 µM (inactive)	Cn1c(=O)n(-c2ccc(C(C)(C)C#N)cc2)c2c3cc(-c4cnc5ccccc5c4)ccc3ncc21 [DACTOLISIB]
> 30 µM (inactive)	> 30 µM (inactive)	> 30 µM (inactive)	0.795 µM (active)	> 30 µM (inactive)	0.14 µM (active)	> 30 µM (inactive)	COc1cccc(Nc2ncnn3ccc(CN4CC[C@@H](N)[C@H](O)C4)c23)c1 [BMS-690514]
> 30 µM (inactive)	> 30 µM (inactive)	> 30 µM (inactive)	> 30 µM (inactive)	> 30 µM (inactive)	> 30 µM (inactive)	> 30 µM (inactive)	O[C@H]1CC[C@H](Nc2ncc3nc(Nc4c(F)cc(F)cc4F)n([C@H]4CCOC4)c3n2)CC1 [TANZISERTIB]
> 30 µM (inactive)	> 30 µM (inactive)	> 30 µM (inactive)	> 30 µM (inactive)	> 30 µM (inactive)	> 30 µM (inactive)	> 30 µM (inactive)	Cc1cc(-c2cc(OC(=O)c3ccccc3)ccc2Cl)cc2nnc(Nc3ccc(OCCN4CCCC4)cc3)nc12 [TG100-801]
> 30 µM (inactive)	> 30 µM (inactive)	> 30 µM (inactive)	> 30 µM (inactive)	> 30 µM (inactive)	> 30 µM (inactive)	> 30 µM (inactive)	FC(F)(F)c1ccc(CNc2ccc(Cc3c[nH]c4ncc(Cl)cc34)cn2)cn1 [PEXIDARTINIB]
> 30 µM (inactive)	> 30 µM (inactive)	> 30 µM (inactive)	> 30 µM (inactive)	> 30 µM (inactive)	> 30 µM (inactive)	> 30 µM (inactive)	O=c1[nH]c([C@@H]2CCCN2)nc2c1oc1ccc(Cl)cc12
> 30 µM (inactive)	> 30 µM (inactive)	> 30 µM (inactive)	> 30 µM (inactive)	> 30 µM (inactive)	> 30 µM (inactive)	> 30 µM (inactive)	Cc1cc(C(=O)Nc2cc(Oc3ccc4nc(NC(=O)C5CC5)cn4n3)ccc2C)n(C)n1 [TAK-593]
> 30 µM (inactive)	> 30 µM (inactive)	> 30 µM (inactive)	> 30 µM (inactive)	> 30 µM (inactive)	> 30 µM (inactive)	> 30 µM (inactive)	Cn1c(=O)c(F)c(Nc2ccc(I)cc2F)c2c(=O)n(C[C@@H](O)CO)cnc21 [TAK-733]
> 30 µM (inactive)	> 30 µM (inactive)	> 30 µM (inactive)	> 30 µM (inactive)	> 30 µM (inactive)	> 30 µM (inactive)	> 30 µM (inactive)	C=CC(=O)Nc1cccc(Nc2nc(Nc3ccc(N4CCN(C(C)=O)CC4)cc3OC)ncc2C(F)(F)F)c1 [ROCILETINIB]
> 30 µM (inactive)	> 30 µM (inactive)	> 30 µM (inactive)	> 30 µM (inactive)	4.97 µM	> 30 µM (inactive)	> 30 µM (inactive)	COc1cccc2cc(-c3nc([C@H]4CC[C@H](C(=O)O)CC4)n4ncnc(N)c34)[nH]c12 [OSI-027]
> 30 µM (inactive)	> 30 µM (inactive)	> 30 µM (inactive)	> 30 µM (inactive)	> 30 µM (inactive)	2.54 µM (active)	> 30 µM (inactive)	O=S(=O)(c1cccc2c(O)nccc12)N1CCCNCC1 [HYDROXYFASUDIL]
> 30 µM (inactive)	> 30 µM (inactive)	> 30 µM (inactive)	> 30 µM (inactive)	> 30 µM (inactive)	> 30 µM (inactive)	> 30 µM (inactive)	CC[C@@](C)(Nc1ccnc(-c2c[nH]c3ncccc23)n1)C(=O)NCC(F)(F)F [DECERNOTINIB]

Compound	Kd [1]	Kd [2]	Kd [3]	Kd [4]	Kd [5]	Kd [6]	Kd [7]
COc1cc(F)c(F)c(Nc2ccc(I)cc2F)c1NS(=O)(=O)C1(C[C@H](O)CO)CC1 [REFAMETINIB]	> 30 µM (inactive)	> 30 µM (inactive)	> 30 µM (inactive)	> 30 µM (inactive)	> 30 µM (inactive)	> 30 µM (inactive)	> 30 µM (inactive)
CC(C)CC(=O)Nc1[nH]nc2c1CN(C(=O)C1CCN(C)CC1)C2(C)C [PHA-793887]	> 30 µM (inactive)	> 30 µM (inactive)	2.56 µM (active)	> 30 µM (inactive)	> 30 µM (inactive)	0.103 µM (active)	> 30 µM (inactive)
CC1(COc2ccc3c(c2)ncn3-c2ccc3cccc(N4CCC(N)CC4)c3n2)COC1 [CRENOLANIB]	> 30 µM (inactive)	> 30 µM (inactive)	1.38 µM (active)	> 30 µM (inactive)	> 30 µM (inactive)	> 30 µM (inactive)	> 30 µM (inactive)
C=CCn1c(=O)c2cnc(Nc3ccc(N4CCN(C)CC4)cc3)nc2n1-c1cccc(C(C)(C)O)n1 [ADAVOSERTIB]	> 30 µM (inactive)	> 30 µM (inactive)	> 30 µM (inactive)	> 30 µM (inactive)	> 30 µM (inactive)	> 30 µM (inactive)	> 30 µM (inactive)
CCc1nc(C(N)=O)c(Nc2ccc(N3CCC(N4CCN(C)CC4)CC3)c(OC)c2)nc1NC1CCOCC1 [GILTERITINIB]	> 30 µM (inactive)	0.039 µM (active)	> 30 µM (inactive)	> 30 µM (inactive)	> 30 µM (inactive)	> 30 µM (inactive)	0.295 µM (active)
N#CCNC(=O)c1ccc(-c2ccnc(Nc3ccc(N4CCOCC4)cc3)n2)cc1 [MOMELOTINIB]	> 30 µM (inactive)	> 30 µM (inactive)	> 30 µM (inactive)	> 30 µM (inactive)	> 30 µM (inactive)	0.531 µM (active)	1.28 µM (active)
COCCN1CCN(Cc2ccc(-c3n[nH]c4c3C(=O)c3c(NC(=O)NN5CCOCC5)cccc3-4)cc2)CC1 [RGB-286638]	> 30 µM (inactive)	> 30 µM (inactive)	1.34 µM (active)	> 30 µM (inactive)	2.18 µM	0.195 µM (active)	0.515 µM
